In US20110130425A1, “Use of H3 Histaminergic Agonists for the Treatment of Addiction to Drugs of Abuse” (priority 2009, published 2011):

Tested on: dopamine release
Assay: Nicotine stimulation of dopamine release in striatal miniprisms
Format: cell-based, Sprague-Dawley rat
Details: 0.5 mM L-histidine preincubation; 100 nM nicotine, 15 mM K+; rat striatal miniprisms; vs controls
Experimental: One male Sprague-Dawley rat obtained from Charles-River weighing 200-250 g is used. The rat brain is rapidly removed and placed in ice-cold oxygen-saturated (O2/CO2:95%/5%) Krebs bicarbonate buffer (124 mM NaCl, 0.8 mM KCl, 1.25 mM NaH2PO4, 1.2 mM KH2PO4, 0.67 mM MgSO4, 2.6 mM CaCl2, 10 mM glucose and 27.5 mM NaHCO3, pH 7.4). The striata is dissected and cut using a Mcllwain™ Mechanical Tissue Copper (Stoelting Co., Wood Dale, Ill.) into miniprisms of 0.3 mm/side. The microprims are transferred to ice-cold Krebs buffer, gently centrifuged, and the buffer changed to remove damaged tissue and cellular debris.
Brain miniprisms are distributed into 24 flat-bottom Eppendorf tubes and preincubated for 2 hours in 0.25 mL Krebs buffer at 37° C. using an Eppendorf Thermomixer® under a O2/CO2 atmosphere. Then the medium is replaced with fresh Krebs buffer at 37° C. with or without 0.5 mM L-histidine prepared in the same buffer. This concentration of L-histidine is similar to that reached in plasma of L-histidine-treated humans (Block et al., 1967). […]
All samples are then cooled down on ice and quickly centrifuged at 1000×g for 1 minute to separate buffer from tissue. […] An automatic autosampler Merck-Hitachi L-7200 and an automated fraction collector Gilson FC203B automatically recover internal standard dopamine peaks when UV detected into scintillation vials. […]

In the case of `N[C@@H](Cc1c[nH]cn1)C(=O)O` [L-histidine], the “dopamine release caused by nicotine stimulation” value is reported as “less dopamine release”.
